Measurements published in patent US10195313B2, “Method for forming hydrogel arrays using surfaces with differential wettability” (Wisconsin Alumni Research Foundation, priority 2014, dated 2019).
Non-standard residues stand in square brackets, D forms with d. No end group written: not given here.

Tested on: endothelial cells (HUVECs, iPSC-ECs, hESC-ECs)
Test: endothelial cell tubule network formation (tubulogenesis) on patterned hydrogel array spots
Format: cell-based, human
Settings: 0.067 mM to 0.267 of peptide incorporated into hydrogel arrays
Method: In this Example, a patterned hydrogel array was used to investigate endothelial cell tubule network formation (termed “tubulogenesis”) in vitro.
Specifically, patterned hydrogel arrays were composed of 8-arm, 20 kDa polyethylene glycol) functionalized with norbenene. As illustrated in the schematic shown in FIG. 13A, the patterned hydrogel arrays included hydrogel spots contained from 30 mg/mL to 60 mg/mL PEG, from 30-70% crosslinking with an MMP-degradable crosslinking peptide (KCGGPQGIWGQGCK, SEQ ID NO:35 or KCGGPQGIAGQGCK, SEQ ID NO:36) and 0.25 mM to 2 mM of a cell adhesive peptide (CRGDS, SEQ ID NO:2). Patterned hydrogel array spots were seeded with human umbilical vein endothelial cells (HUVECs), human induced pluripotent stem cell-derived endothelial cells (iPSC-ECs), and human embryonic stem cell-derived endothelial cells (hESC-ECs) in culture media containing standard growth medium for each cell type (Medium 199 and EGM-2 BULLETKIT™ (Lonza, Basel, Switzerland) for HUVECs, VASCULIFE® and VEGF LifeFactors for iPSC-ECs and hESC-ECs (Lifeline Cell Technology, Frederick, Md.)).
The hydrogel spots that contained between 36 mg/mL to 60 mg/mL PEG, 30-70% crosslinking with an MMP-degradable crosslinking peptide and 0.25 mM to 2 mM of the cell adhesive peptide supported of EC tubule formation (FIG. 13C). […]

Substance: CKDAPYEWNFDILdYdAdFdE (CKDAPYEWNFDIL[dY][dA][dF][dE]; not fully specified (residue 13))
- persistence of tubule networks: enhanced
